Tested on: MV-4-11 cells
Test: Gene expression microarray analysis (Affymetrix PrimeView) and GSEA
Type: cell-based, human
Set-up: RFU PODN (11730768_x_at) / Fold change /veh PODN (11730768_x_at) / RFU LINC00158 (11744669_a_at) / Fold change /veh LINC00158 (11744669_a_at) / RFU DUSP10 (11751237_a_at) / Fold change /veh DUSP10 (11751237_a_at) / RFU ID3 (11757404_x_at) / Fold change /veh ID3 (11757404_x_at) / RFU PLEKHG5 (11737974_s_at) / Fold change /veh PLEKHG5 (11737974_s_at) / RFU LRRC4B (11730491_at) / Fold change /veh LRRC4B (11730491_at) / RFU GIMAP4 (11747438_a_at) / Fold change /veh GIMAP4 (11747438_a_at) / RFU KRT8 (11758183_x_at) / Fold change /veh KRT8 (11758183_x_at) / RFU CNN1 (11734310_a_at) / Fold change /veh CNN1 (11734310_a_at) / RFU VPS37D (11726825_at) / Fold change /veh VPS37D (11726825_at) / RFU C10orf10 (11716522_x_at) / Fold change /veh C10orf10 (11716522_x_at) / RFU KIR2DL2 /// KIR2DL4 /// KIR2DL5A /// KIR2DL5B /// KIR2DS1 /// KIR2DS2 /// KIR2DS3 /// KIR2DS4 /// KIR3DL3 /// KIR3DL3 /// KIR3DS1 (11738374_at) / Fold change /veh KIR2DL2 /// KIR2DL4 /// KIR2DL5A /// KIR2DL5B /// KIR2DS1 /// KIR2DS2 /// KIR2DS3 /// KIR2DS4 /// KIR3DL3 /// KIR3DL3 /// KIR3DS1 (11738374_at) / RFU C1QL1 (11718748_at) / Fold change /veh C1QL1 (11718748_at) / RFU TMPRSS4 (11747572_a_at) / Fold change /veh TMPRSS4 (11747572_a_at) / RFU HAMP (11756126_x_at) / Fold change /veh HAMP (11756126_x_at) / RFU RNFT2 (11725882_a_at) / Fold change /veh RNFT2 (11725882_a_at) / RFU NR4A2 (11747474_a_at) / Fold change /veh NR4A2 (11747474_a_at) / RFU ABCC12 (11746883_a_at) / Fold change /veh ABCC12 (11746883_a_at) / RFU TMEM136 (11760407_x_at) / Fold change /veh TMEM136 (11760407_x_at) / RFU CLDN22 /// WWC2 (11732394_at) / Fold change /veh CLDN22 /// WWC2 (11732394_at) / RFU HLA-DPB1 (11760878_x_at) / Fold change /veh HLA-DPB1 (11760878_x_at) / RFU SPINT1 (11716480_a_at) / Fold change /veh SPINT1 (11716480_a_at) / RFU GAP43 (11754022_s_at) / Fold change /veh GAP43 (11754022_s_at) / RFU A4GNT (11735810_at) / Fold change /veh A4GNT (11735810_at) / RFU PRB3 (11715151_x_at) / Fold change /veh PRB3 (11715151_x_at) / RFU TUBB4B (11761932_at) / Fold change /veh TUBB4B (11761932_at) / RFU CAPN14 (11732068_a_at) / Fold change /veh CAPN14 (11732068_a_at) / RFU TMCC2 (11721928_a_at) / Fold change /veh TMCC2 (11721928_a_at) / RFU IRGQ (11745062_a_at) / Fold change /veh IRGQ (11745062_a_at) / RFU FAM174B (11720279_a_at) / Fold change /veh FAM174B (11720279_a_at) / RFU TMPRSS4 (11748680_a_at) / Fold change /veh TMPRSS4 (11748680_a_at) / RFU FAM212B (11763350_a_at) / Fold change /veh FAM212B (11763350_a_at) / RFU PLEKHG5 (11743358_a_at) / Fold change /veh PLEKHG5 (11743358_a_at) / RFU ZSCAN30 (11745921_a_at) / Fold change /veh ZSCAN30 (11745921_a_at) / RFU CMKLR1 (11741424_a_at) / Fold change /veh CMKLR1 (11741424_a_at) / RFU LOC101060620 /// MAPK8IP1 (11723275_at) / Fold change /veh LOC101060620 /// MAPK8IP1 (11723275_at) / RFU SPTSSB (11747773_x_at) / Fold change /veh SPTSSB (11747773_x_at) / RFU PRSS12 (11739890_at) / Fold change /veh PRSS12 (11739890_at) / RFU BIN1 (11741810_x_at) / Fold change /veh BIN1 (11741810_x_at) / RFU WNT11 (11732464_a_at) / Fold change /veh WNT11 (11732464_a_at) / RFU C10orf10 (11716521_a_at) / Fold change /veh C10orf10 (11716521_a_at) / RFU C5orf56 (11738089_at) / Fold change /veh C5orf56 (11738089_at) / RFU CYB561 (11721691_x_at) / Fold change /veh CYB561 (11721691_x_at) / RFU ANKRD19P (11752326_a_at) / Fold change /veh ANKRD19P (11752326_a_at) / RFU OR2T12 /// OR2T33 /// OR2T8 (11738714_s_at) / Fold change /veh OR2T12 /// OR2T33 /// OR2T8 (11738714_s_at) / RFU VCAN (11748164_a_at) / Fold change /veh VCAN (11748164_a_at) / RFU JSRP1 (11732532_at) / Fold change /veh JSRP1 (11732532_at) / RFU KRTAP10-11 (11738290_x_at) / Fold change /veh KRTAP10-11 (11738290_x_at) / RFU MYO3A (11730013_a_at) / Fold change /veh MYO3A (11730013_a_at) / RFU EBF3 (11725865_a_at) / Fold change /veh EBF3 (11725865_a_at) / RFU CAMK2N1 (11719241_x_at) / Fold change /veh CAMK2N1 (11719241_x_at) / RFU C5orf56 (11738088_a_at) / Fold change /veh C5orf56 (11738088_a_at) / RFU OLFML3 (11715873_a_at) / Fold change /veh OLFML3 (11715873_a_at) / RFU LOC100653217 /// NTM (11731650_a_at) / Fold change /veh LOC100653217 /// NTM (11731650_a_at) / RFU MAPK11 (11762145_a_at) / Fold change /veh MAPK11 (11762145_a_at) / RFU FIZ1 (11724087_x_at) / Fold change /veh FIZ1 (11724087_x_at) / RFU OASL (11726364_x_at) / Fold change /veh OASL (11726364_x_at) / RFU SOX15 (11748057_x_at) / Fold change /veh SOX15 (11748057_x_at) / RFU CD79A (11719716_a_at) / Fold change /veh CD79A (11719716_a_at) / RFU HIST1H1D (11736915_at) / Fold change /veh HIST1H1D (11736915_at) / RFU CASKIN2 (11723855_a_at) / Fold change /veh CASKIN2 (11723855_a_at) / RFU LOC730098 (11760151_x_at) / Fold change /veh LOC730098 (11760151_x_at) / RFU OR4N2 (11742367_at) / Fold change /veh OR4N2 (11742367_at) / RFU PRRT2 (11749266_a_at) / Fold change /veh PRRT2 (11749266_a_at) / RFU SNX32 (11753110_a_at) / Fold change /veh SNX32 (11753110_a_at) / RFU CDHR5 (11726645_a_at) / Fold change /veh CDHR5 (11726645_a_at) / RFU RCAN1 (11760418_a_at) / Fold change /veh RCAN1 (11760418_a_at) / RFU FAM167A (11723789_a_at) / Fold change /veh FAM167A (11723789_a_at) / RFU FAM26E (11764081_at) / Fold change /veh FAM26E (11764081_at) / RFU ISYNA1 (11749810_s_at) / Fold change /veh ISYNA1 (11749810_s_at) / RFU ACY1 (11761880_at) / Fold change /veh ACY1 (11761880_at) / RFU 11764098_at / Fold change /veh 11764098_at / RFU SAMD14 (11745864_x_at) / Fold change /veh SAMD14 (11745864_x_at) / RFU NPB (11741838_a_at) / Fold change /veh NPB (11741838_a_at) / RFU TMPRSS6 (11731388_a_at) / Fold change /veh TMPRSS6 (11731388_a_at) / RFU KRTAP10-2 (11738614_at) / Fold change /veh KRTAP10-2 (11738614_at) / RFU ARHGAP8 /// PRR5-ARHGAP8 (11727945_x_at) / Fold change /veh ARHGAP8 /// PRR5-ARHGAP8 (11727945_x_at) / RFU KRTAP5-7 /// NADSYN1 (11734609_at) / Fold change /veh KRTAP5-7 /// NADSYN1 (11734609_at) / RFU RASL12 (11751679_a_at) / Fold change /veh RASL12 (11751679_a_at) / RFU CDKN2B (11736163_a_at) / Fold change /veh CDKN2B (11736163_a_at) / RFU PRF1 (11729649_at) / Fold change /veh PRF1 (11729649_at) / RFU, ZNF638 /// ZNF638-IT1 / Fold change vs veh, ZNF638 /// ZNF638-IT1 / RFU, PANK3 / Fold change vs veh, PANK3 / RFU, SH3YL1 / Fold change vs veh, SH3YL1 / RFU, ZEB2 / Fold change vs veh, ZEB2 / RFU, NRIP1 / Fold change vs veh, NRIP1 / RFU, PTTG1IP / Fold change vs veh, PTTG1IP / RFU, CAPN2 / Fold change vs veh, CAPN2 / RFU, MED14 / Fold change vs veh, MED14 / RFU, SNORA58 / Fold change vs veh, SNORA58 / RFU, C1orf63 / Fold change vs veh, C1orf63 / RFU, LRRFIP1 / Fold change vs veh, LRRFIP1 / RFU, NDUFAF7 / Fold change vs veh, NDUFAF7 / RFU, SLC12A2 / Fold change vs veh, SLC12A2 / RFU, IBTK / Fold change vs veh, IBTK / RFU, ESF1 / Fold change vs veh, ESF1 / Fold change vs veh, TMEM50B / RFU, TAOK1 / Fold change vs veh, TAOK1 / RFU, ACBD3 / Fold change vs veh, ACBD3 / RFU, TMA16 / Fold change vs veh, TMA16 / RFU, RWDD3 / Fold change vs veh, RWDD3 / RFU, BCAT1 / Fold change vs veh, BCAT1 / RFU, EDEM3 / Fold change vs veh, EDEM3 / RFU, TMEM33 / Fold change vs veh, TMEM33 / RFU, WDR75 / Fold change vs veh, WDR75 / RFU, AHCTF1 / Fold change vs veh, AHCTF1 / RFU, TFRC / Fold change vs veh, TFRC / RFU, ZDHHC17 / Fold change vs veh, ZDHHC17 / RFU, NOM1 / Fold change vs veh, NOM1 / RFU, ARL8B / Fold change vs veh, ARL8B / RFU, ZBTB11 / Fold change vs veh, ZBTB11 / RFU, TAMM41 / Fold change vs veh, TAMM41 / RFU, KIAA1704 /// LOC100996395 / Fold change vs veh, KIAA1704 /// LOC100996395 / RFU, ING1 / Fold change vs veh, ING1 / RFU, TRMT61B / Fold change vs veh, TRMT61B / RFU, FUBP3 / Fold change vs veh, FUBP3 / RFU, TP53 / Fold change vs veh, TP53 / RFU, TNKS2 / Fold change vs veh, TNKS2 / RFU, ZFP14 / Fold change vs veh, ZFP14 / RFU, ACTR2 / Fold change vs veh, ACTR2 / RFU, PPP3R1 / Fold change vs veh, PPP3R1 / RFU, PIK3R1 / Fold change vs veh, PIK3R1 / RFU, HNRNPA1 / Fold change vs veh, HNRNPA1 / RFU, RNF170 / Fold change vs veh, RNF170 / RFU, ZNF28 / Fold change vs veh, ZNF28 / RFU, RNGTT / Fold change vs veh, RNGTT / RFU, OGT / Fold change vs veh, OGT / RFU, BRD1 / Fold change vs veh, BRD1 / RFU, MARS / Fold change vs veh, MARS / RFU, ZNF655 / Fold change vs veh, ZNF655 / RFU, FAHD1 / Fold change vs veh, FAHD1 / RFU, BDP1 / Fold change vs veh, BDP1 / RFU, LRRCC1 / Fold change vs veh, LRRCC1 / RFU, ARID1A / Fold change vs veh, ARID1A / RFU, ZNF146 / Fold change vs veh, ZNF146 / RFU, ZNF330 / Fold change vs veh, ZNF330 / RFU, GPN3 / Fold change vs veh, GPN3 / RFU, C9orf123 / Fold change vs veh, C9orf123 / RFU, N4BP2L2 / Fold change vs veh, N4BP2L2 / RFU, ARFIP1 / Fold change vs veh, ARFIP1 / RFU, FAM179B / Fold change vs veh, FAM179B / RFU, BCL10 / Fold change vs veh, BCL10 / RFU, UHRF1BP1L / Fold change vs veh, UHRF1BP1L / RFU, BET1 / Fold change vs veh, BET1 / RFU, CNOT2 / Fold change vs veh, CNOT2 / RFU, ZNF268 / Fold change vs veh, ZNF268 / Fold change vs veh, ZNF507 / RFU, DGCR2 / Fold change vs veh, DGCR2 / RFU, WDSUB1 / Fold change vs veh, WDSUB1 / Fold change vs veh, HSP90B1 /// MIR3652 / RFU, ADSS / Fold change vs veh, ADSS / RFU, GK / Fold change vs veh, GK / RFU, ZNF148 / Fold change vs veh, ZNF148 / RFU, TAF9 / Fold change vs veh, TAF9 / RFU, SLC1A5 / Fold change vs veh, SLC1A5 / RFU, SLMO2 / Fold change vs veh, SLMO2 / RFU, ABCC4 / Fold change vs veh, ABCC4 / RFU, LOC101060439 /// RAP1B / Fold change vs veh, LOC101060439 /// RAP1B / RFU, RFX7 / Fold change vs veh, RFX7 / RFU, GTPBP10 / Fold change vs veh, GTPBP10 / RFU, CNEP1R1 / Fold change vs veh, CNEP1R1 / RFU, BIVM-ERCC5 /// ERCC5 / Fold change vs veh, BIVM-ERCC5 /// ERCC5 / RFU, ILF3 / Fold change vs veh, ILF3 / RFU 11762660_at / Fold change /veh 11762660_at / RFU VCAN (11757783_s_at) / Fold change /veh VCAN (11757783_s_at) / RFU DDX43 (11728927_at) / Fold change /veh DDX43 (11728927_at) / RFU KRT8 (11758188_x_at) / Fold change /veh KRT8 (11758188_x_at) / RFU NKD1 (11759106_at) / Fold change /veh NKD1 (11759106_at) / RFU SRD5A1 (11742802_a_at) / Fold change /veh SRD5A1 (11742802_a_at) / RFU TPSAB1 /// TPSB2 (11721975_s_at) / Fold change /veh TPSAB1 /// TPSB2 (11721975_s_at) / RFU GSTM3 (11746129_a_at) / Fold change /veh GSTM3 (11746129_a_at) / RFU IL23R (11737362_x_at) / Fold change /veh IL23R (11737362_x_at) / RFU TMEM51 (11727254_a_at) / Fold change /veh TMEM51 (11727254_a_at) / RFU PIWIL2 (11732686_x_at) / Fold change /veh PIWIL2 (11732686_x_at) / RFU ORM1 (11744905_x_at) / Fold change /veh ORM1 (11744905_x_at) / RFU CCDC152 (11743942_at) / Fold change /veh CCDC152 (11743942_at) / RFU ECM1 (11717891_a_at) / Fold change /veh ECM1 (11717891_a_at) / RFU IL23R (11748794_a_at) / Fold change /veh IL23R (11748794_a_at) / RFU TNFAIP8L3 (11732012_x_at) / Fold change /veh TNFAIP8L3 (11732012_x_at) / RFU MBOAT4 (11741988_at) / Fold change /veh MBOAT4 (11741988_at) / RFU 11764193_at / Fold change /veh 11764193_at / RFU TMEM53 (11763286_at) / Fold change /veh TMEM53 (11763286_at) / RFU MAGEB2 (11727129_at) / Fold change /veh MAGEB2 (11727129_at) / RFU TMEM200A (11744735_a_at) / Fold change /veh TMEM200A (11744735_a_at) / RFU CCDC152 (11751479_a_at) / Fold change /veh CCDC152 (11751479_a_at) / RFU FAM211A (11726209_a_at) / Fold change /veh FAM211A (11726209_a_at) / RFU RGS16 (11746705_a_at) / Fold change /veh RGS16 (11746705_a_at) / RFU VCAN (11755009_s_at) / Fold change /veh VCAN (11755009_s_at) / RFU RHOB (11743442_s_at) / Fold change /veh RHOB (11743442_s_at) / RFU RGS16 (11720943_a_at) / Fold change /veh RGS16 (11720943_a_at) / RFU RGS16 (11720944_at) / Fold change /veh RGS16 (11720944_at) / RFU, VPS4B / Fold change vs veh, VPS4B / RFU, CREB1 / Fold change vs veh, CREB1 / RFU, DNAJC13 / Fold change vs veh, DNAJC13 / RFU, GNAQ / Fold change vs veh, GNAQ / RFU, CDK5R1 / Fold change vs veh, CDK5R1 / RFU, ZRANB3 / Fold change vs veh, ZRANB3 / RFU, CUL4A / Fold change vs veh, CUL4A / RFU, CCNY / Fold change vs veh, CCNY / RFU, UFL1 / Fold change vs veh, UFL1 / RFU, COG3 / Fold change vs veh, COG3 / RFU, DIAPH2 / Fold change vs veh, DIAPH2 / RFU, SKA2 / Fold change vs veh, SKA2 / RFU, AFF3 / Fold change vs veh, AFF3 / RFU, LMF1 / Fold change vs veh, LMF1 / RFU, IPO11 / Fold change vs veh, IPO11 / RFU, DFFB / Fold change vs veh, DFFB / RFU, FOXP1 / Fold change vs veh, FOXP1 / RFU, CARD8 / Fold change vs veh, CARD8 / RFU, STRN3 / Fold change vs veh, STRN3 / RFU, ADK / Fold change vs veh, ADK / RFU, RASSF2 / Fold change vs veh, RASSF2 / RFU, WIPF1 / Fold change vs veh, WIPF1 / RFU, LARP1B / Fold change vs veh, LARP1B / RFU, RASA1 / Fold change vs veh, RASA1 / RFU, RB1 / Fold change vs veh, RB1 / RFU, PPFIA1 / Fold change vs veh, PPFIA1 / RFU, MAT2A / Fold change vs veh, MAT2A / RFU, CCT5 / Fold change vs veh, CCT5 / RFU, WDR92 / Fold change vs veh, WDR92 / RFU, CUX1 / Fold change vs veh, CUX1 / RFU, TTC7A / Fold change vs veh, TTC7A / RFU, TMEM135 / Fold change vs veh, TMEM135 / RFU, DEPTOR / Fold change vs veh, DEPTOR / RFU, CPM / Fold change vs veh, CPM / RFU, DNAJB6 / Fold change vs veh, DNAJB6 / RFU, CACNA2D3 / Fold change vs veh, CACNA2D3 / RFU, DTX4 / Fold change vs veh, DTX4 / RFU, TFCP2 / Fold change vs veh, TFCP2 / RFU, GMCL1 /// GMCL1P1 / Fold change vs veh, GMCL1 /// GMCL1P1 / RFU, AEBP2 / Fold change vs veh, AEBP2 / RFU, SNHG1 /// SNORD22 /// SNORD25 /// SNORD26 /// SNORD27 /// SNORD28 /// SNORD29 /// SNORD31 / Fold change vs veh, SNHG1 /// SNORD22 /// SNORD25 /// SNORD26 /// SNORD27 /// SNORD28 /// SNORD29 /// SNORD31 / Fold change (Aza/veh), C12orf56 (ProbeSet 11735607_a_at) / Fold change (ACY-1035/veh), C12orf56 (ProbeSet 11735607_a_at) / Fold change (Aza/veh), FGFR1OP (ProbeSet 11751329_s_at) / Fold change (ACY-1035/veh), FGFR1OP (ProbeSet 11751329_s_at) / Fold change (Aza/veh), VPS36 (ProbeSet 11739960_a_at) / Fold change (ACY-1035/veh), VPS36 (ProbeSet 11739960_a_at) / RFU SYPL1 (11715823_x_at) / Fold change /veh SYPL1 (11715823_x_at) / RFU IGFBP7 (11715501_s_at) / Fold change /veh IGFBP7 (11715501_s_at) / RFU REEP3 (11722064_at) / Fold change /veh REEP3 (11722064_at) / RFU IGLL1 (11728026_x_at) / Fold change /veh IGLL1 (11728026_x_at): dose or concentration left out as unconfirmed
Conditions: MV-4-11 cells, 48 hours

SMILES: Nc1ccc(-c2cccs2)cc1NC(=O)c1ccc2c(c1)cc(C1CC1)n2CCN1CCOCC1 [ACY-1035]
- Fold change /veh IGFBP7 (11715501_s_at): 0.33
